ChEMBL document CHEMBL1201862, “PubChem BioAssay data set” (2004)
Each block holds one molecule with its values, some of them ahead of it. Activity calls are given as the source filed them.

Experiments:
[1] = target: DNA dC->dU-editing enzyme APOBEC-3G (Homo sapiens, UniProt Q9HC16); assay: inhibition of APOBEC3G ssDNA deamination – biochemical, fluorescence, single-stranded DNA substrate, SAR follow-up (AID 602136); format: functional; details: read-out: IC50_Mean
[2] = target: DNA dC->dU-editing enzyme APOBEC-3A (Homo sapiens, UniProt P31941); assay: SAR analysis of small molecule inhibitors of APOBEC3A DNA Deaminase via a fluorescence-based single-stranded DNA deaminase assay.; format: functional; details: read-out: IC50_Mean
[3] = target: Cysteine protease ATG4B (Homo sapiens, UniProt Q9Y4P1); format: functional;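 note: Fluorescence-based dose-response confirmation assay measuring inhibition of ATG4B activity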
[4] = target: Phospholipase A2 (Homo sapiens, UniProt P04054); format: functional;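 note: confirmatory dose-response counterscreen on phospholipase A2, testing hits that came from an ultra-high-throughput screen for ATG4B inhibitors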
[5] = Luminescence Cell-Based Dose Retest to Confirm Inhibitors of Cancer Stem Cells. [Related pubchem assays (depositor defined):AID2717, AID2721]; format: functional; details: Homo sapiens
[6] = target: Heat shock protein HSP 90-alpha (Homo sapiens, UniProt P07900); format: functional, organism-based
[7] = target: Voltage-gated inwardly rectifying potassium channel KCNH2 (Homo sapiens, UniProt Q12809); details: Potency;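 note: confirmatory quantitative high-throughput screen measuring inhibition of hERG channel activity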
[8] = tested on: Escherichia coli; assay: microbe, parasite or virus in culture
[9] = tested on: Escherichia coli; assay: microbe, parasite or virus in culture; remark: listed apart in the source
[10] = target: T1, Sentrin-specific protease 8 (Homo sapiens, UniProt Q96LD8); assay: inhibition of human SENP8 cleavage activity – biochemical, luminescence, SAR follow-up (AID 504501); format: functional
T1 sequence (Q96LD8 whole entry): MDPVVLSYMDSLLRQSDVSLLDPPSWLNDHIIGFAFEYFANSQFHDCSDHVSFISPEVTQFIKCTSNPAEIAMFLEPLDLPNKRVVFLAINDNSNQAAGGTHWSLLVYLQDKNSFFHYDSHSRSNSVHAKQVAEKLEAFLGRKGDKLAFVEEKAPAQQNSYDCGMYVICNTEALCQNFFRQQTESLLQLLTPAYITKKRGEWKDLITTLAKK

[11] = target: T2, Caspase-3 (Homo sapiens, UniProt P42574); assay: SAR Analysis of small molecule inhibitors of Sentrin-specific proteases (SENPs) using a Caspase-3 Selectivity assay. [Related pubchem assays (depositor defined):AID2540, AID2599, AID434973, AID489001]; format: functional
T2 sequence (P42574 whole entry): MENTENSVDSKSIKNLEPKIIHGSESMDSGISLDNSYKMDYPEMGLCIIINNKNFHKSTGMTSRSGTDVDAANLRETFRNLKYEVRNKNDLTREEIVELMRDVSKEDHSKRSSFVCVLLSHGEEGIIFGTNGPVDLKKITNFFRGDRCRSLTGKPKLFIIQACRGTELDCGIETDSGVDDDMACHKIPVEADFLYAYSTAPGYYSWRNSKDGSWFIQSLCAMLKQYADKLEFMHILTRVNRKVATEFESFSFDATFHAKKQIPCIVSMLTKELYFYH

[12] = target: T3, Sentrin-specific protease 6 (Homo sapiens, UniProt Q9GZR1); assay: SAR Analysis of small molecule inhibitors of Sentrin-specific protease 6 (SENP6) using a Luminescent assay. [Related pubchem assays (depositor defined):AID2582, AID2599]; format: functional
T3 sequence (Q9GZR1 whole entry): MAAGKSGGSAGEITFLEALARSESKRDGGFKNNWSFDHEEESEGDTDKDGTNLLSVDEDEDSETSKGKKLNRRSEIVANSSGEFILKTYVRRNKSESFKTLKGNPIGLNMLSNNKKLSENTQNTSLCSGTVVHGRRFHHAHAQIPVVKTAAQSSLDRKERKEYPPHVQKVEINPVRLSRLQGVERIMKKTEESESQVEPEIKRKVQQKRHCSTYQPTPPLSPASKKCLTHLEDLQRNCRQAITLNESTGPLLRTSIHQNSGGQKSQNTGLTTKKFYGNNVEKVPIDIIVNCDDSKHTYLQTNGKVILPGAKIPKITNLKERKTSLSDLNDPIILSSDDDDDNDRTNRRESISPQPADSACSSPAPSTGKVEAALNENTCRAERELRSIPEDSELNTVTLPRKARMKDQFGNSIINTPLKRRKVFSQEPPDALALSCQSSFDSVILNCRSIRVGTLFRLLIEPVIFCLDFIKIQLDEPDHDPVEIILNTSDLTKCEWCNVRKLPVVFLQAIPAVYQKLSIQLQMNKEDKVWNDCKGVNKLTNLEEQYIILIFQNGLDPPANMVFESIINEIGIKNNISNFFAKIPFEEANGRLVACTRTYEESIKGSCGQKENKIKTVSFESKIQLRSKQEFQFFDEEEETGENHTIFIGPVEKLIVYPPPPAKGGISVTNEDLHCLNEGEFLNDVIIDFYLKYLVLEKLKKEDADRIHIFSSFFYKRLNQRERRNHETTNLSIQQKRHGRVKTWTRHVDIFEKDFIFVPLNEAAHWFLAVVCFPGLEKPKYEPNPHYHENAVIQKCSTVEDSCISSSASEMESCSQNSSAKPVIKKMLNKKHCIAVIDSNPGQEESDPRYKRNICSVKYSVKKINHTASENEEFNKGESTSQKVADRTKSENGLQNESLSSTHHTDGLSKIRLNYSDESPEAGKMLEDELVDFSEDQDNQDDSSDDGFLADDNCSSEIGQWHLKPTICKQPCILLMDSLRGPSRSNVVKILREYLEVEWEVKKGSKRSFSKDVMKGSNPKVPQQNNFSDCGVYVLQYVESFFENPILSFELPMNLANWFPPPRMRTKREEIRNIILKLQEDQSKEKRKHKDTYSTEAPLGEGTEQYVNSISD

[13] = target: T4, Sentrin-specific protease 7 (Homo sapiens, UniProt Q9BQF6); assay: inhibition of human SENP7 cleavage activity – biochemical, luminescence, SAR follow-up (AID 504497); format: functional
T4 sequence (Q9BQF6 whole entry): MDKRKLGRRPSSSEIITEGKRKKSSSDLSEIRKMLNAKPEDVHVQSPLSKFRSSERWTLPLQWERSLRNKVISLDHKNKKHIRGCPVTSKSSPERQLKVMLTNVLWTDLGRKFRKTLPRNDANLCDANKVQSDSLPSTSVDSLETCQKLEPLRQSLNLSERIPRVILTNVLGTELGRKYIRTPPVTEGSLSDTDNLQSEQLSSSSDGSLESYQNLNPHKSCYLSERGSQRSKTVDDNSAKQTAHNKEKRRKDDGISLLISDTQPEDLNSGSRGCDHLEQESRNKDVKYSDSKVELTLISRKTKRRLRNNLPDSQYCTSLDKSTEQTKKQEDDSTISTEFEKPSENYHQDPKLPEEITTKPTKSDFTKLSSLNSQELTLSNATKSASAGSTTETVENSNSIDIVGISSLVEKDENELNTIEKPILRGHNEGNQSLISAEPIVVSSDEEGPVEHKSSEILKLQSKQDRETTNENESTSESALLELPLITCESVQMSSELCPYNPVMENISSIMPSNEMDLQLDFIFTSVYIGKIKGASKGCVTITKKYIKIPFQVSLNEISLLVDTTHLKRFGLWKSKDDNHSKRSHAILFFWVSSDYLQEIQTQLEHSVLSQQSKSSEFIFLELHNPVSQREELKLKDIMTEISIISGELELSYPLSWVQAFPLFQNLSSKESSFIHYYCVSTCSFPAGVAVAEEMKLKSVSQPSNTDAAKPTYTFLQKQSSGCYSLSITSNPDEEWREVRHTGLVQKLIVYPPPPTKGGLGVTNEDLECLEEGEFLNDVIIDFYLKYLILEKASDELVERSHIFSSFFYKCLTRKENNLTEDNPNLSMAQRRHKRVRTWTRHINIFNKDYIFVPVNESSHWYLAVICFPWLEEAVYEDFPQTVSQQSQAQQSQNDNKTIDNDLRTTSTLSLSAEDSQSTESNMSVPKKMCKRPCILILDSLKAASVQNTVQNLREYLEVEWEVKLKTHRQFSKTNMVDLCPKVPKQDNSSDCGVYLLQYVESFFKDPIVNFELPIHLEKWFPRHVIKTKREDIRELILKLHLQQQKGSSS

Cysteine protease ATG4B, sequence (Q9Y4P1 whole entry): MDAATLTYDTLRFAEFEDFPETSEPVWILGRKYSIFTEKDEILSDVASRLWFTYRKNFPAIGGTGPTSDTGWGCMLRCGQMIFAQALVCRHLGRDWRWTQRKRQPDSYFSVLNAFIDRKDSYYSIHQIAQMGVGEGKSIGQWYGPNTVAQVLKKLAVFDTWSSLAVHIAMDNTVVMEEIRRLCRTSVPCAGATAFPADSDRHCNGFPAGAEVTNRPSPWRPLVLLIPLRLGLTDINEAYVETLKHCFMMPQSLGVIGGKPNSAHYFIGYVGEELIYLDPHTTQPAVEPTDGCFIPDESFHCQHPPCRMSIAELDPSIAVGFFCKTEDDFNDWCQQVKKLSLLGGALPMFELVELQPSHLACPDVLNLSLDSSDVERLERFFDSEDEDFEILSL
Phospholipase A2, sequence (P04054 whole entry): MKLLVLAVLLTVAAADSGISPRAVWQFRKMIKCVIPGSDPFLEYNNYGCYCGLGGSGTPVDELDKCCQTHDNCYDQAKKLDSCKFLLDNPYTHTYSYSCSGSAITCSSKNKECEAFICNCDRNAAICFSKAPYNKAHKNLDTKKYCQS
Voltage-gated inwardly rectifying potassium channel KCNH2, sequence (Q12809 whole entry): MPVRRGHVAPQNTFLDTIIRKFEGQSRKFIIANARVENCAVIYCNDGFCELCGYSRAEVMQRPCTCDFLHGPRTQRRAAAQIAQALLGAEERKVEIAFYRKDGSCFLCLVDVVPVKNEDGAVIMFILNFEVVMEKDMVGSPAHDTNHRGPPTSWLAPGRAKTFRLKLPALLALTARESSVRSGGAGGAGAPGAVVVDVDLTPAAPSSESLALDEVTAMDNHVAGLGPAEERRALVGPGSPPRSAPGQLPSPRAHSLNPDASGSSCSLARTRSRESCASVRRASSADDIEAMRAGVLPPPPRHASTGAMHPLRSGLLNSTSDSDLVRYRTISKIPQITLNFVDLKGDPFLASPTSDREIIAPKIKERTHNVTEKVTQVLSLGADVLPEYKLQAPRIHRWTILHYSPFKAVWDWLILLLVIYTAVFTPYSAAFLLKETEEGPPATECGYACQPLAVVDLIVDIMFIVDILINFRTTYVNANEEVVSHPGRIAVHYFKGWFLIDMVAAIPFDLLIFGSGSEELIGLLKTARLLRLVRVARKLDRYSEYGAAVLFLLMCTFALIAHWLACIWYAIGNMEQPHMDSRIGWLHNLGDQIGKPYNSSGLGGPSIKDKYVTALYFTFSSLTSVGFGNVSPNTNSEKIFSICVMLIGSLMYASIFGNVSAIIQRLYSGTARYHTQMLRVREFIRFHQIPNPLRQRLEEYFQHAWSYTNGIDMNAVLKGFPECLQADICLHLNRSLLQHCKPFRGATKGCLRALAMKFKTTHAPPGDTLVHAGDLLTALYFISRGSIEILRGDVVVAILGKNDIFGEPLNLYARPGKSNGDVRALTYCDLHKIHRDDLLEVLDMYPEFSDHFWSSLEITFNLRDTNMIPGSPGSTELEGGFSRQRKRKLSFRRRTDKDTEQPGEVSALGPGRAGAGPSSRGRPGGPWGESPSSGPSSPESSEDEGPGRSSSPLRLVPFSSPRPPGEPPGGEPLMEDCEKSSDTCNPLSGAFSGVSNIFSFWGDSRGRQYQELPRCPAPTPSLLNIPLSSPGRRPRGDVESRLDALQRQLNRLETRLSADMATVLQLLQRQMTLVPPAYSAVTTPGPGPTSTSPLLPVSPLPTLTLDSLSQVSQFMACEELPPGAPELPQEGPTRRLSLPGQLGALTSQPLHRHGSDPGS
DNA dC->dU-editing enzyme APOBEC-3A, sequence (P31941 whole entry): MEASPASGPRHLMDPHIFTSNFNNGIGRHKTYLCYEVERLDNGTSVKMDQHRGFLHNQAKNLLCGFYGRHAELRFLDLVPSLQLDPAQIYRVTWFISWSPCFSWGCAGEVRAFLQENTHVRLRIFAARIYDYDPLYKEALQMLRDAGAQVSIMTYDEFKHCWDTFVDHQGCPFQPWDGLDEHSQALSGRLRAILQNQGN
DNA dC->dU-editing enzyme APOBEC-3G, sequence (Q9HC16 whole entry): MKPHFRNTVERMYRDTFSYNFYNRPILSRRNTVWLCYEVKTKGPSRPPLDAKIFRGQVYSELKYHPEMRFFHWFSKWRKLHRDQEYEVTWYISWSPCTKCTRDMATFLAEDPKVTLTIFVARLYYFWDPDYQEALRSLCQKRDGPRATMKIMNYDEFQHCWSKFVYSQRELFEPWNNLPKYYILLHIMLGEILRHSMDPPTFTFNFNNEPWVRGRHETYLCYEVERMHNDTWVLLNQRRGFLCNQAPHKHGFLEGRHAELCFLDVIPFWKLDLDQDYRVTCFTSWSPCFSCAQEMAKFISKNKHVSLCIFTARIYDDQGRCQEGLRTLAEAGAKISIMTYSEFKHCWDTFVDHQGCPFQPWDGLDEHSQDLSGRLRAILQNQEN

Compound: Cc1nc2sc3c(c2c2nncn12)CCCC3
IC50 [1]: > 99 µM (inactive)
IC50 [2]: > 99 µM (inactive)

Compound: O=C(CNCC1CCCCC1)Nc1ccccc1N1CCCCC1
IC50 [3]: 10.8 µM (active)
IC50 [4]: 9.35 µM (active)

Compound: CC[C@@H]1Cc2cc(O)ccc2C2=C1c1ccc(O)cc1C[C@H]2CC
AC50 [5]: 2.36 µM (active)
AC50 [6]: 6.32 µM (active)
AC50 [7]: 25.1 µM (inconclusive)

Compound: COCCCn1c(SCCc2ccccc2)nc2cc(OC)c(OC)cc2c1=N
AC50 [8]: 51.3 µM (active)
AC50 [9]: 37.6 µM (active)

Second part, led by results:

IC50 [3]: 12.4 µM (active)
IC50 [4]: 8.76 µM (active)
Compound: COC(=O)c1sc(N(C)C)c(C#N)c1-c1ccccc1

IC50 [11]: > 99 µM (inactive)
IC50 [12]: > 99 µM (inactive)
IC50 [13]: > 99 µM (inactive)
Compound: O=C(Nc1nc2ccc(Cl)cc2s1)c1cc2ccccc2o1
IC50 [10]: > 99 µM (inactive)

IC50 [11]: > 99 µM (inactive)
IC50 [12]: > 99 µM (inactive)
IC50 [13]: 79.7 µM (active)
Compound: O=C(Nc1nc2c(Cl)cccc2s1)C1COc2ccccc2O1 (centres undefined)
IC50 [10]: > 99 µM (inactive)
